# Test results: paper PMC8401933 (Molecules, 2021)
# pIC50: −log10 of the molar value. “Also recorded” adds a separate entry of the source.
# Experiments:
# CAMK2G = biological target: T1, CAMK2G (Homo sapiens, UniProt Q13555); assay: KINOMEscan binding; details: read-out: Percent Control
# T1 construct: purchased Eurofins DiscoverX KINOMEscan
# CDK11 = biological target: T2, CDK11 (Homo sapiens, UniProt Q9BWU1); assay: KINOMEscan binding; details: read-out: Percent Control
# T2 construct: purchased Eurofins DiscoverX KINOMEscan
# FGFR3 = biological target: T3, FGFR3 (Homo sapiens, UniProt P22607); assay: KINOMEscan binding; details: read-out: Percent Control
# T3 construct: purchased Eurofins DiscoverX KINOMEscan
# TSSK3 = biological target: T4, TSSK3 (Homo sapiens, UniProt Q96PN8); assay: KINOMEscan binding; details: read-out: Percent Control
# T4 construct: purchased Eurofins DiscoverX KINOMEscan
# T4 sequence (Q96PN8 whole entry): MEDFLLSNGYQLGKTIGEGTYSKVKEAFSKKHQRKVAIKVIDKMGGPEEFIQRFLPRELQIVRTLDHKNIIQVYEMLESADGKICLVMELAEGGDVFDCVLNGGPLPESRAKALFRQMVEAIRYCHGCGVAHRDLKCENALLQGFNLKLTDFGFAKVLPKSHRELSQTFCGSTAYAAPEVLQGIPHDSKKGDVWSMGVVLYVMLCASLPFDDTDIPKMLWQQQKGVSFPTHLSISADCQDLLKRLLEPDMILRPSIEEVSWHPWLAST
# ABL1-nonphosphorylated = biological target: T5, ABL1-nonphosphorylated (Homo sapiens, UniProt P00519); assay: KINOMEscan binding; details: read-out: Percent Control
# T5 construct: purchased Eurofins DiscoverX KINOMEscan
# PKAC-alpha = biological target: T6, PKAC-alpha (Homo sapiens, UniProt P17612); assay: KINOMEscan binding; details: read-out: Percent Control
# T6 construct: purchased Eurofins DiscoverX KINOMEscan
# AKT2 = biological target: T7, AKT2 (Homo sapiens, UniProt P31751); assay: KINOMEscan binding; details: read-out: Percent Control
# T7 construct: purchased Eurofins DiscoverX KINOMEscan
# T7 sequence (P31751 whole entry): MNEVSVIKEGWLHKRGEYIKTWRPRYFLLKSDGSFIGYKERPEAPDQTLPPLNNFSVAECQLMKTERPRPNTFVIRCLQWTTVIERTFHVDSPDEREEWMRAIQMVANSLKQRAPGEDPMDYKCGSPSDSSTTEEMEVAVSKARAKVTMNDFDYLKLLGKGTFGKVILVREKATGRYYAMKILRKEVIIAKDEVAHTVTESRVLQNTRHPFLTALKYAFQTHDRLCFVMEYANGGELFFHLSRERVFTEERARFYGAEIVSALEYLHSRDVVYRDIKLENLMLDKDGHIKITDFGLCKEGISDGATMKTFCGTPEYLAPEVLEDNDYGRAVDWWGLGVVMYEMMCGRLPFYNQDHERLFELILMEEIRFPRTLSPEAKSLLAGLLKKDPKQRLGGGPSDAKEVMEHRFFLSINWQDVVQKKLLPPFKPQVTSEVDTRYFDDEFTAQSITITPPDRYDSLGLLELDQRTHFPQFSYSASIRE
# TAOK2 = biological target: T8, TAOK2 (Homo sapiens, UniProt Q9UL54); assay: KINOMEscan binding; details: read-out: Percent Control
# T8 construct: purchased Eurofins DiscoverX KINOMEscan
# AMPK-alpha2 = biological target: T9, AMPK-alpha2 (Homo sapiens, UniProt P54646); assay: KINOMEscan binding; details: read-out: Percent Control
# T9 construct: purchased Eurofins DiscoverX KINOMEscan
# T9 sequence (P54646 whole entry): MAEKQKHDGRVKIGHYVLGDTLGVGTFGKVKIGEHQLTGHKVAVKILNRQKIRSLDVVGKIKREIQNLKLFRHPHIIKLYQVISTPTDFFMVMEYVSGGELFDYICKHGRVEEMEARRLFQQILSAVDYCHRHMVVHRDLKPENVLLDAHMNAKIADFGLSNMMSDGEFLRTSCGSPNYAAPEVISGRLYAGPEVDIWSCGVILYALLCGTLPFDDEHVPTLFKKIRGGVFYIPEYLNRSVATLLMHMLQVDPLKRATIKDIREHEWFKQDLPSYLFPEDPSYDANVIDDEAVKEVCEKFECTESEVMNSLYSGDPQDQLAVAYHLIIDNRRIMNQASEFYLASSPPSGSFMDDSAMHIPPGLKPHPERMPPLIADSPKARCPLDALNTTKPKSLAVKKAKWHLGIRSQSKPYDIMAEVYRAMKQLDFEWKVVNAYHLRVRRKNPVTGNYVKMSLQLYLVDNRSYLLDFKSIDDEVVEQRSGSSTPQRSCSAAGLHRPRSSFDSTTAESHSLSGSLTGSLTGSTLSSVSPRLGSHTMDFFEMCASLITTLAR
# IGF1R = biological target: T10, IGF1R (Homo sapiens, UniProt P08069); assay: KINOMEscan binding; details: read-out: Percent Control
# T10 construct: purchased Eurofins DiscoverX KINOMEscan
# MAPKAPK2 = biological target: T11, MAPKAPK2 (Homo sapiens, UniProt P49137); assay: KINOMEscan binding; details: read-out: Percent Control
# T11 construct: purchased Eurofins DiscoverX KINOMEscan
# KIT(V559D,V654A) = biological target: T12, KIT(V559D,V654A) (Homo sapiens, UniProt P10721, V559D/V654A); assay: KINOMEscan binding; details: read-out: Percent Control
# T12 construct: purchased Eurofins DiscoverX KINOMEscan
# [1] = biological target: T13, ABL1(F317I)-nonphosphorylated (Homo sapiens, UniProt P00519, F317I); assay: KINOMEscan binding; details: read-out: Percent Control
# T13 construct: purchased Eurofins DiscoverX KINOMEscan
# MLK3 = biological target: T14, MLK3 (Homo sapiens, UniProt Q16584); assay: KINOMEscan binding; details: read-out: Percent Control
# T14 construct: purchased Eurofins DiscoverX KINOMEscan
# DAPK3 = biological target: T15, DAPK3 (Homo sapiens, UniProt O43293); assay: KINOMEscan binding; details: read-out: Percent Control
# T15 construct: purchased Eurofins DiscoverX KINOMEscan
# 3T3-L1 cells = assay: Adipocyte differentiation, Oil Red O staining; assay type: cell-based; details: for quantity of lipid droplets (ORO staining): CX-4945 5 μM, KD025 3 μM
# Experimental: The preadipocyte 3T3-L1 cell line was kindly provided by Dr. Hyun-Sung Park (University of Seoul) and cultured in Dulbecco’s modified Eagle’s medium (DMEM, Sigma-Aldrich) supplied with 10% heat-inactivated newborn calf serum (Invitrogen, CA, USA), 100 units/mL penicillin, and 100 µg/mL streptomycin (Cellgro, VA, USA). The cells were maintained in an incubator at 37 °C and 5% CO2. To initiate differentiation, the cells were incubated for additional days after 100% confluence and then further incubated in a medium containing fetal bovine serum (FBS) and a differentiation cocktail (DMI, 1 μM dexamethasone, 0.5 mM 3-isobutyl-1-methylxanthine, and 5 μg/mL insulin) as previously described. In brief, at day 3, the culture medium was replaced with DMEM/10%FBS containing 5 µg/mL insulin. Then, growth medium was changed every 2 days.
# Lipid droplets of cells were stained using ORO (Sigma-Aldrich, MA, USA). In brief, the cells were washed with phosphate buffered saline and incubated with 10% formalin for 5 min. The cells were then fixed with the same volume of fresh formalin for at least 1 h. Subsequently, the cells were washed with 60% isopropanol, air dried completely, and then stained with ORO working solution (1% ORO/isopropanol: distilled water = 3:2). The stained cells were washed with water four times. Cell images were taken by a microscope (Nikon Eclipse TS100-F, Japan). Then, 100% isopropanol was added and incubated for 10 min to quantify the intensity of ORO. The quantity of extracted dye was obtained by obtaining absorbance at 540 nm in the Synergy H1 hybrid reader (BioTek, VT, USA).
# MRCKA = biological target: T16, MRCKA (Homo sapiens, UniProt Q5VT25); assay: KINOMEscan binding; details: read-out: Percent Control
# T16 construct: purchased Eurofins DiscoverX KINOMEscan
# RAF1 = biological target: T17, RAF1 (Homo sapiens, UniProt P04049); assay: KINOMEscan binding; details: read-out: Percent Control
# T17 construct: purchased Eurofins DiscoverX KINOMEscan
# TIE2 = biological target: T18, TIE2 (Homo sapiens, UniProt Q02763); assay: KINOMEscan binding; details: read-out: Percent Control
# T18 construct: purchased Eurofins DiscoverX KINOMEscan
# ADCK4 = biological target: T19, ADCK4 (Homo sapiens, UniProt Q96D53); assay: KINOMEscan binding; details: read-out: Percent Control
# T19 construct: purchased Eurofins DiscoverX KINOMEscan
# T19 sequence (Q96D53 whole entry): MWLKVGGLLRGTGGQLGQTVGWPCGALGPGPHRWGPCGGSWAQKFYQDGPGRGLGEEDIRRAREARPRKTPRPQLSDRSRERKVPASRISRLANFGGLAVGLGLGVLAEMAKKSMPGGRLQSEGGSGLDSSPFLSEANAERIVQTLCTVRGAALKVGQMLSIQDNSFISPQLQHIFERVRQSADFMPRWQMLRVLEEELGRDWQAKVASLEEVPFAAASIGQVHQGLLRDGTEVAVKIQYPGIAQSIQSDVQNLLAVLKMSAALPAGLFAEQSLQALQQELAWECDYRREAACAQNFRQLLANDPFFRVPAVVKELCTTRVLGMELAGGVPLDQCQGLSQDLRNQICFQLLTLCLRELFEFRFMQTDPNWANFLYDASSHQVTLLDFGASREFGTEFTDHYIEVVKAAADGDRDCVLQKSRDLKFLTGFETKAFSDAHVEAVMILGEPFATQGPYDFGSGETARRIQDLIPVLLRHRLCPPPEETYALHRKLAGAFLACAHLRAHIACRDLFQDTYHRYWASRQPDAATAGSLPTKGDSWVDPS
# TRPM6 = biological target: T20, TRPM6 (Homo sapiens, UniProt Q9BX84); assay: KINOMEscan binding; details: read-out: Percent Control
# T20 construct: purchased Eurofins DiscoverX KINOMEscan
# [2] = biological target: T21, RSK4(Kin.Dom.1-N-terminal) (Homo sapiens, UniProt Q9UK32); assay: KINOMEscan binding; details: read-out: Percent Control
# T21 construct: RSK4(Kin.Dom.1-N-terminal); purchased Eurofins DiscoverX KINOMEscan
# T21 sequence (Q9UK32 1-400 limits assumed): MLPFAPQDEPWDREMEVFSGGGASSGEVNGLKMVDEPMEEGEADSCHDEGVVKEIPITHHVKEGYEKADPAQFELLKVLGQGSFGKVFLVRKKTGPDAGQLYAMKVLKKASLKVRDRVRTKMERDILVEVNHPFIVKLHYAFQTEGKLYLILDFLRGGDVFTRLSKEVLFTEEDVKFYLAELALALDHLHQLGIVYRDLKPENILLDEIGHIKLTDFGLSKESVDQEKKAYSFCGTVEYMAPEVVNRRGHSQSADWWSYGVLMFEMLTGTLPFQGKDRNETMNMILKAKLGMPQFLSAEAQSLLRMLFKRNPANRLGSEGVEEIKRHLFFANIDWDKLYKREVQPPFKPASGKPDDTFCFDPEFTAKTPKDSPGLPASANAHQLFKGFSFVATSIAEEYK
# ERK5 = biological target: T22, ERK5 (Homo sapiens, UniProt Q13164); assay: KINOMEscan binding; details: read-out: Percent Control
# T22 construct: purchased Eurofins DiscoverX KINOMEscan
# T22 sequence (Q13164 whole entry): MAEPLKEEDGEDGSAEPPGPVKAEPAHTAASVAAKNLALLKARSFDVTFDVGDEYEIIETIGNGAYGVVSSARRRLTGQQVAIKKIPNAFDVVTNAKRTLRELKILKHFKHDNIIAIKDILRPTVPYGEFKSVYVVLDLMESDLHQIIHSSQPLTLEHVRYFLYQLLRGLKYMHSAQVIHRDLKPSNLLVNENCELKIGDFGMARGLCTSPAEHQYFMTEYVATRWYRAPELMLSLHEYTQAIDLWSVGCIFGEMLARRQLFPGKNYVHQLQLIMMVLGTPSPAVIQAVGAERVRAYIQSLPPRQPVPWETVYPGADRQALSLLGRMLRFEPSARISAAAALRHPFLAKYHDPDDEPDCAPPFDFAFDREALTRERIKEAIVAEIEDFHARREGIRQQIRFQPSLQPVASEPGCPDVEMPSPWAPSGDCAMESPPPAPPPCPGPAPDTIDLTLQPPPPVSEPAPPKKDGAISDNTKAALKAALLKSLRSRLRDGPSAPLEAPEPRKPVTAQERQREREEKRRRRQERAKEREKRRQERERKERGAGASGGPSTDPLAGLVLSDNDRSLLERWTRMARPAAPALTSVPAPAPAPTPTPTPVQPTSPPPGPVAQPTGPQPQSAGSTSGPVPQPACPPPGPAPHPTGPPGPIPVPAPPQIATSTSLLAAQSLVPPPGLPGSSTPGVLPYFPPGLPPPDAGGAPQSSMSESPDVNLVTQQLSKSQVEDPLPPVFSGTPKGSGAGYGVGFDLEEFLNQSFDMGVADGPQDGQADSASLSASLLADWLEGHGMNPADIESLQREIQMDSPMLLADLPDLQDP
# GSK3B = biological target: T23, GSK3B (Homo sapiens, UniProt P49841); assay: KINOMEscan binding; details: read-out: Percent Control
# T23 construct: purchased Eurofins DiscoverX KINOMEscan
# T23 sequence (P49841 whole entry): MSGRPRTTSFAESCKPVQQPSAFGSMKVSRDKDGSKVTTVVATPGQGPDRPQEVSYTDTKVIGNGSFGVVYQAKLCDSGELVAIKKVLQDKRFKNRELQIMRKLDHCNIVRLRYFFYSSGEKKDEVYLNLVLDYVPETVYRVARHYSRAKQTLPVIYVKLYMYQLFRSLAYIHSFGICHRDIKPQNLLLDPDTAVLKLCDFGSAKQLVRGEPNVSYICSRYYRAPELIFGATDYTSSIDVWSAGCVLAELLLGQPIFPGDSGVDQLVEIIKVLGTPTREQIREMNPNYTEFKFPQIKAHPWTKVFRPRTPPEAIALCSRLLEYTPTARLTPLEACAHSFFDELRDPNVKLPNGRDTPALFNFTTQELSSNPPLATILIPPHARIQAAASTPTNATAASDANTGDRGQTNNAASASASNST
# KIT = biological target: T24, KIT (Homo sapiens, UniProt P10721); assay: KINOMEscan binding; details: read-out: Percent Control
# T24 construct: purchased Eurofins DiscoverX KINOMEscan
# ROCK1 = system: ROCK1; set-up: method as in PMID 18832915; details: cited from earlier work
# NEK4 = biological target: T25, NEK4 (Homo sapiens, UniProt P51957); assay: KINOMEscan binding; details: read-out: Percent Control
# T25 construct: purchased Eurofins DiscoverX KINOMEscan
# [3] = biological target: T26, RPS6KA5(Kin.Dom.2-C-terminal) (Homo sapiens, UniProt O75582); assay: KINOMEscan binding; details: read-out: Percent Control
# T26 construct: RPS6KA5(Kin.Dom.2-C-terminal); purchased Eurofins DiscoverX KINOMEscan
# MKNK1 = biological target: T27, MKNK1 (Homo sapiens, UniProt Q9BUB5); assay: KINOMEscan binding; details: read-out: Percent Control
# T27 construct: purchased Eurofins DiscoverX KINOMEscan
# T27 sequence (Q9BUB5 whole entry): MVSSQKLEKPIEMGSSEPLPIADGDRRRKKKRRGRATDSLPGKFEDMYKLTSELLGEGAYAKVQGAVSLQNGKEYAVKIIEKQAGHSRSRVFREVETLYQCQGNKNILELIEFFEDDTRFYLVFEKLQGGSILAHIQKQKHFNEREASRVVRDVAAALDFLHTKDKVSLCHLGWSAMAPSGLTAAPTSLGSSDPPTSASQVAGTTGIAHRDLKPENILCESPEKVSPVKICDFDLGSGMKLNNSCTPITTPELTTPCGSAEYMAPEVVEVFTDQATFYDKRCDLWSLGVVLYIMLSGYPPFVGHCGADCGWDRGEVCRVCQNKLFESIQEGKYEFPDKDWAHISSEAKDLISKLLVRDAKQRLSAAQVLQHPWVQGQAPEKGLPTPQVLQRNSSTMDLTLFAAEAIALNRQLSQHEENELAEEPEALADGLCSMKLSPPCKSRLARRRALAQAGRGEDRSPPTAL
# TAOK3 = biological target: T28, TAOK3 (Homo sapiens, UniProt Q9H2K8); assay: KINOMEscan binding; details: read-out: Percent Control
# T28 construct: purchased Eurofins DiscoverX KINOMEscan
# T28 sequence (Q9H2K8 whole entry): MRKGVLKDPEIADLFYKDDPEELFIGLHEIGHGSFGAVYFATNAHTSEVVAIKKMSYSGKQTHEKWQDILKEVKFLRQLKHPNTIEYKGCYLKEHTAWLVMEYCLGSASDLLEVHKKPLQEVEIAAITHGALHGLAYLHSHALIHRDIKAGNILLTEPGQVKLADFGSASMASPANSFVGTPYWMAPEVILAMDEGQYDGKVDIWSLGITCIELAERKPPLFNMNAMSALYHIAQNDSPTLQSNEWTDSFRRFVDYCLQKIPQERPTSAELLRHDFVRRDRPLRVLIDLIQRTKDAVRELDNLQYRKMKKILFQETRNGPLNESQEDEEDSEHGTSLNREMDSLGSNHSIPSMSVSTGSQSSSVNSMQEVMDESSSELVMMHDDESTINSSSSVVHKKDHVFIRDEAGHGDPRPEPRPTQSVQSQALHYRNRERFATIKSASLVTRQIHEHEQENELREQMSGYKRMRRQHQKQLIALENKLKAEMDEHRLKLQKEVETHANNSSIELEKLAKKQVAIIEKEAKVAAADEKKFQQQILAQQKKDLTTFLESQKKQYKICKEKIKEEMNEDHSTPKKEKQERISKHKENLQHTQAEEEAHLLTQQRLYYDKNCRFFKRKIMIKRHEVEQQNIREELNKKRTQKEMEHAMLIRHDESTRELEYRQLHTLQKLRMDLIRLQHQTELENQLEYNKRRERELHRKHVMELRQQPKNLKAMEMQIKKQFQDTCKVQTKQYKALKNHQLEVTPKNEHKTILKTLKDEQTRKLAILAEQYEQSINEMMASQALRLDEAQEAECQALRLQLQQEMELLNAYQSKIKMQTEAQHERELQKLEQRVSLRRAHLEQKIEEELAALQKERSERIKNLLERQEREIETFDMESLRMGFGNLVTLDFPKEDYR
# PDGFRA = biological target: T29, PDGFRA (Homo sapiens, UniProt P16234); assay: KINOMEscan binding; details: read-out: Percent Control
# T29 construct: purchased Eurofins DiscoverX KINOMEscan
# PIK4CB = biological target: T30, PIK4CB (Homo sapiens, UniProt Q9UBF8); assay: KINOMEscan binding; details: read-out: Percent Control
# T30 construct: purchased Eurofins DiscoverX KINOMEscan
# LTK = biological target: T31, LTK (Homo sapiens, UniProt P29376); assay: KINOMEscan binding; details: read-out: Percent Control
# T31 construct: purchased Eurofins DiscoverX KINOMEscan
smiles,measurement,setting,value
"CC(C)NC(=O)COc1cccc(-c2nc(Nc3ccc4[nH]ncc4c3)c3ccccc3n2)c1 [KD025, 2-(3-(4-((1H-indazol-5-yl)amino)quinazolin-2-yl)phenoxy)-N-isopropylacetamide]",remaining binding at 10 µM,CAMK2G,99%
same,remaining binding at 10 µM,CDK11,99%
same,remaining binding at 10 µM,FGFR3,72%
same,remaining binding at 10 µM,TSSK3,77%
same,remaining binding at 10 µM,ABL1-nonphosphorylated,78%
same,remaining binding at 10 µM,PKAC-alpha,100%
same,remaining binding at 10 µM,AKT2,90%
same,remaining binding at 10 µM,TAOK2,83%
same,remaining binding at 10 µM,AMPK-alpha2,75%
same,remaining binding at 10 µM,IGF1R,56%
same,remaining binding at 10 µM,MAPKAPK2,100%
same,remaining binding at 10 µM,"KIT(V559D,V654A)",92%
same,remaining binding at 10 µM,[1],98%
same,remaining binding at 10 µM,MLK3,83%
same,remaining binding at 10 µM,DAPK3,35%
same,lipid accumulation / adipocyte differentiation (ORO staining),"3T3-L1 cells; 3T3-L1, treated during differentiation, stained at day 8",suppressed the generation of lipid droplets; also recorded: reduces fat accumulation
same,quantity of lipid droplets (ORO staining),"3T3-L1 cells; 3T3-L1, treated during the early (days 0–1) or late (days 5–8) stage",ineffective; also recorded: lesser effect
same,quantity of lipid droplets (ORO staining),"3T3-L1 cells; 3T3-L1, treated during the intermediate stage (days 1–3)",acted specifically in the middle stage; also recorded: significantly reduced
same,remaining binding at 10 µM,MRCKA,57%
same,remaining binding at 10 µM,RAF1,62%
same,remaining binding at 10 µM,TIE2,55%
same,remaining binding at 10 µM,ADCK4,100%
same,remaining binding at 10 µM,TRPM6,93%
same,remaining binding at 10 µM,[2],93%
same,remaining binding at 10 µM,ERK5,100%
same,remaining binding at 10 µM,GSK3B,100%
same,remaining binding at 10 µM,KIT,79%
same,pIC50,ROCK1,4.62
same,remaining binding at 10 µM,NEK4,87%
same,remaining binding at 10 µM,[3],86%
same,remaining binding at 10 µM,MKNK1,68%
same,remaining binding at 10 µM,TAOK3,89%
same,remaining binding at 10 µM,PDGFRA,80%
same,remaining binding at 10 µM,PIK4CB,92%
same,remaining binding at 10 µM,LTK,49%
